Experimental data reported in ChEMBL document CHEMBL1201862, “PubChem BioAssay data set” (2004).
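Test compounds were applied to cells in 96-well plates for 48 hours at 5 doses. GI50 marks 50% less growth.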 Activity calls are given as the source filed them. Rule as the data show it: active = GI50 up to about 1.1 µM and inactive = higher.

Legend:
Experiment in all cases: growth of human tumour cells (NCI), 48 h
[1] = tested on: SF-539
[2] = tested on: SK-MEL-2
[3] = tested on: KM-20L2
[4] = tested on: M14
[5] = tested on: SR
[6] = tested on: DMS-273
[7] = tested on: OVCAR-4
[8] = tested on: SK-MEL-28
[9] = tested on: K562
[10] = tested on: HL-60
[11] = tested on: UACC-62
[12] = tested on: HOP-92
[13] = tested on: SF-295
[14] = tested on: LOX IMVI
[15] = tested on: SF-268
[16] = tested on: A498
[17] = tested on: NCI-H23
[18] = tested on: OVCAR-3
[19] = tested on: SNB-78
[20] = tested on: DLD-1
[21] = tested on: ACHN
[22] = tested on: CCRF-CEM
[23] = tested on: Malme-3M
[24] = tested on: OVCAR-8
[25] = tested on: UO-31
[26] = tested on: SNB-75
[27] = tested on: SK-MEL-5
[28] = tested on: HCT-15
[29] = tested on: XF498
[30] = tested on: MOLT-4
[31] = tested on: EKVX
[32] = tested on: M19-MEL
[33] = tested on: RXF 631
[34] = tested on: IGROV-1
[35] = tested on: HCT-116
[36] = tested on: RPMI-8226
[37] = tested on: NCI-H226
[38] = tested on: SW-620
[39] = tested on: DMS-114
[40] = tested on: 786-0
[41] = tested on: NCI-H460
[42] = tested on: CAKI-1
[43] = tested on: HT-29
[44] = tested on: TK-10
[45] = tested on: NCI-H522
[46] = tested on: UACC-257
[47] = tested on: OVCAR-5
[48] = tested on: RXF 393
[49] = tested on: SN12C
[50] = tested on: LXFL 529
[51] = tested on: U-251
[52] = tested on: HCC 2998
[53] = tested on: SNB-19
[54] = tested on: A549
[55] = tested on: HOP-62
[56] = tested on: SK-OV-3
[57] = tested on: KM12
[58] = tested on: COLO 205
[59] = tested on: HOP-18

Question: With `C=CCNC1=C(C(=O)OCC)C(=O)CO1` as the compound, how does the GI50 [1] read?
Answer: > 100 µM (inactive)

Question: And the GI50 [2]?
Answer: > 100 µM (inactive)

Question: What about the GI50 [3] of the same compound?
Answer: > 100 µM (inactive)

Question: What about the GI50 [4] of the same compound?
Answer: > 100 µM (inactive)

Question: What about the GI50 [5] of the same compound?
Answer: > 100 µM (inactive)

Question: What about the GI50 [6] of the same compound?
Answer: > 100 µM (inactive)

Question: What about the GI50 [7] of the same compound?
Answer: > 100 µM (inactive)

Question: And the GI50 [8]?
Answer: > 100 µM (inactive)

Question: What about the GI50 [9] of the same compound?
Answer: > 100 µM (inactive)

Question: And the GI50 [10]?
Answer: > 100 µM (inactive)

Question: What about the GI50 [11] of the same compound?
Answer: > 100 µM (inactive)

Question: What about the GI50 [12] of the same compound?
Answer: > 100 µM (inactive)

Question: What about the GI50 [13] of the same compound?
Answer: > 100 µM (inactive)

Question: What about the GI50 [14] of the same compound?
Answer: > 100 µM (inactive)

Question: And the GI50 [15]?
Answer: > 100 µM (inactive)

Question: And the GI50 [16]?
Answer: > 100 µM (inactive)

Question: What about the GI50 [17] of the same compound?
Answer: > 100 µM (inactive)

Question: And the GI50 [18]?
Answer: > 100 µM (inactive)

Question: And the GI50 [19]?
Answer: > 100 µM (inactive)

Question: What about the GI50 [20] of the same compound?
Answer: > 100 µM (inactive)

Question: And the GI50 [21]?
Answer: > 100 µM (inactive)

Question: And the GI50 [22]?
Answer: > 100 µM (inactive)

Question: What about the GI50 [23] of the same compound?
Answer: > 100 µM (inactive)

Question: And the GI50 [24]?
Answer: > 100 µM (inactive)

Question: And the GI50 [25]?
Answer: > 100 µM (inactive)

Question: And the GI50 [26]?
Answer: > 100 µM (inactive)

Question: And the GI50 [27]?
Answer: > 100 µM (inactive)

Question: What about the GI50 [28] of the same compound?
Answer: > 100 µM

Question: What about the GI50 [29] of the same compound?
Answer: > 100 µM (inactive)

Question: And the GI50 [30]?
Answer: > 100 µM (inactive)

Question: And the GI50 [31]?
Answer: > 100 µM (inactive)

Question: And the GI50 [32]?
Answer: > 100 µM (inactive)

Question: What about the GI50 [33] of the same compound?
Answer: > 100 µM (inactive)

Question: What about the GI50 [34] of the same compound?
Answer: > 100 µM (inactive)

Question: And the GI50 [35]?
Answer: > 100 µM (inactive)

Question: And the GI50 [36]?
Answer: > 100 µM (inactive)

Question: What about the GI50 [37] of the same compound?
Answer: > 100 µM (inactive)

Question: And the GI50 [38]?
Answer: > 100 µM (inactive)

Question: What about the GI50 [39] of the same compound?
Answer: > 100 µM (inactive)

Question: What about the GI50 [40] of the same compound?
Answer: > 100 µM (inactive)

Question: And the GI50 [41]?
Answer: > 100 µM (inactive)

Question: What about the GI50 [42] of the same compound?
Answer: > 100 µM (inactive)

Question: What about the GI50 [43] of the same compound?
Answer: > 100 µM (inactive)

Question: What about the GI50 [44] of the same compound?
Answer: > 100 µM (inactive)

Question: And the GI50 [45]?
Answer: > 100 µM (inactive)

Question: What about the GI50 [46] of the same compound?
Answer: > 100 µM (inactive)

Question: And the GI50 [47]?
Answer: > 100 µM (inactive)

Question: And the GI50 [48]?
Answer: > 100 µM (inactive)

Question: And the GI50 [49]?
Answer: > 100 µM (inactive)

Question: What about the GI50 [50] of the same compound?
Answer: > 100 µM (inactive)

Question: And the GI50 [51]?
Answer: > 100 µM (inactive)

Question: What about the GI50 [52] of the same compound?
Answer: > 100 µM (inactive)

Question: What about the GI50 [53] of the same compound?
Answer: > 100 µM (inactive)

Question: And the GI50 [54]?
Answer: > 100 µM (inactive)

Question: For `CCOc1ccccc1/N=C(/NC(=O)CC)SC`, which GI50 [1] is on record?
Answer: > 10 µM (inactive)

Question: And the GI50 [55]?
Answer: > 10 µM (inactive)

Question: What about the GI50 [2] of the same compound?
Answer: 38.7 µM (inactive)

Question: And the GI50 [3]?
Answer: > 10 µM (inactive)

Question: And the GI50 [4]?
Answer: > 10 µM (inactive)

Question: What about the GI50 [5] of the same compound?
Answer: > 10 µM (inactive)

Question: What about the GI50 [6] of the same compound?
Answer: > 10 µM (inactive)

Question: And the GI50 [7]?
Answer: 85.1 µM (inactive)

Question: And the GI50 [8]?
Answer: > 10 µM (inactive)

Question: And the GI50 [9]?
Answer: > 10 µM (inactive)

Question: And the GI50 [10]?
Answer: > 10 µM (inactive)

Question: What about the GI50 [56] of the same compound?
Answer: > 10 µM (inactive)

Question: And the GI50 [11]?
Answer: > 10 µM (inactive)

Question: What about the GI50 [12] of the same compound?
Answer: > 10 µM (inactive)

Question: What about the GI50 [13] of the same compound?
Answer: > 10 µM (inactive)

Question: And the GI50 [14]?
Answer: > 10 µM (inactive)

Question: What about the GI50 [15] of the same compound?
Answer: > 10 µM (inactive)

Question: What about the GI50 [16] of the same compound?
Answer: > 10 µM (inactive)

Question: What about the GI50 [17] of the same compound?
Answer: 70.5 µM (inactive)

Question: What about the GI50 [18] of the same compound?
Answer: > 10 µM (inactive)

Question: What about the GI50 [19] of the same compound?
Answer: > 10 µM (inactive)

Question: And the GI50 [20]?
Answer: 88.3 µM (inactive)

Question: What about the GI50 [21] of the same compound?
Answer: > 10 µM (inactive)

Question: What about the GI50 [22] of the same compound?
Answer: 64.6 µM (inactive)

Question: What about the GI50 [23] of the same compound?
Answer: 67.1 µM (inactive)

Question: What about the GI50 [24] of the same compound?
Answer: 57 µM (inactive)

Question: What about the GI50 [25] of the same compound?
Answer: > 10 µM (inactive)

Question: And the GI50 [26]?
Answer: 67.6 µM (inactive)

Question: And the GI50 [27]?
Answer: > 10 µM (inactive)

Question: What about the GI50 [28] of the same compound?
Answer: 52.5 µM

Question: And the GI50 [57]?
Answer: > 10 µM (inactive)

Question: What about the GI50 [30] of the same compound?
Answer: 68.4 µM (inactive)

Question: What about the GI50 [31] of the same compound?
Answer: > 10 µM (inactive)

Question: And the GI50 [32]?
Answer: > 10 µM (inactive)

Question: And the GI50 [33]?
Answer: > 10 µM (inactive)

Question: What about the GI50 [34] of the same compound?
Answer: > 10 µM (inactive)

Question: And the GI50 [35]?
Answer: 81.1 µM (inactive)

Question: And the GI50 [36]?
Answer: 95.9 µM (inactive)

Question: And the GI50 [37]?
Answer: > 10 µM (inactive)

Question: What about the GI50 [38] of the same compound?
Answer: > 10 µM (inactive)

Question: What about the GI50 [39] of the same compound?
Answer: > 10 µM (inactive)

Question: What about the GI50 [40] of the same compound?
Answer: > 10 µM (inactive)

Question: What about the GI50 [41] of the same compound?
Answer: > 10 µM (inactive)

Question: What about the GI50 [42] of the same compound?
Answer: > 10 µM (inactive)

Question: What about the GI50 [43] of the same compound?
Answer: > 10 µM (inactive)

Question: And the GI50 [44]?
Answer: > 10 µM (inactive)

Question: And the GI50 [58]?
Answer: > 10 µM (inactive)

Question: And the GI50 [45]?
Answer: > 10 µM (inactive)

Question: What about the GI50 [46] of the same compound?
Answer: > 10 µM (inactive)

Question: What about the GI50 [47] of the same compound?
Answer: > 10 µM (inactive)

Question: What about the GI50 [48] of the same compound?
Answer: > 10 µM (inactive)

Question: What about the GI50 [49] of the same compound?
Answer: 65.8 µM (inactive)

Question: And the GI50 [50]?
Answer: > 10 µM (inactive)

Question: What about the GI50 [59] of the same compound?
Answer: > 10 µM (inactive)

Question: What about the GI50 [51] of the same compound?
Answer: > 10 µM (inactive)

Question: And the GI50 [52]?
Answer: > 10 µM (inactive)

Question: What about the GI50 [53] of the same compound?
Answer: > 10 µM (inactive)

Question: And the GI50 [54]?
Answer: > 10 µM (inactive)
